Test results as given in patent US7227020B2, “Azaindoles” (Aventis Pharma Limited, priority 1999, dated 2007).

melting point	Compound
183 to 184 °C	CCOC(=O)COc1cc(-c2cc3nccnc3[nH]2)ccc1OC [Example 27, [2-Methoxy-5-(5H-pyrrolo[2,3-b]pyrazin-6-yl)-phenoxy]acetic acid ethyl ester]
268 to 271 °C	COc1ccc2[nH]cc(-c3cc4nccnc4[nH]3)c2c1 [Example 11, 6-(5-Methoxy-1H-indol-3-yl)-5H-pyrrolo[2,3-b]pyrazine]
263 to 267 °C	COc1ccc2c(c1)c(-c1cc3nccnc3[nH]1)cn2CC(=O)N1CCOCC1 [Example 12, 2-[5-Methoxy-3-(5H-pyrrolo[2,3-b]pyrazin-6-yl)-indol-1-yl]-1-morpholin-4-yl-ethanone]

Second part, the molecule before the results:

Compound	melting point
c1cncc(OCCCn2cc(-c3cc4nccnc4[nH]3)c3ccccc32)c1 [Example 6, 6-{1-[3-(Pyridin-3-yloxy)-propyl]-1H-indol-3-yl}-5H-pyrrolo[2,3-b]pyrazine]	208 to 209 °C
CC(C)(C)c1ccc(-c2[nH]c3nccnc3c2CCCO)cc1 [Example 26, 3-[6-(4-tert-Butyl-phenyl)-5H-pyrrolo[2,3-b]pyrazin-7-yl]-propan-1-ol]	187 to 189 °C
Cn1cc(-c2cc3cccnc3[nH]2)c2cc(N)ccc21 [Example 18, 1-Methyl-3-(1H-pyrrolo[2,3-b]pyridin-2-yl)-1H-indol-5-ylamine]	247 to 248 °C
